Assay results published in the NIST ThermoML archive (doi:10.1016/j.fluid.2011.07.007).
Several values for one entry are separate records, joined by “and”; a condition that tells them apart may be missing. Equal entries are not always repeated. Structures can show the parent of a compound that is named as a salt.

Conditions: Transpiration method

CC(C)(C)OC(=O)C(=O)OC(C)(C)C [di-tert-butyl oxalate]
Conditions | vapor or sublimation pressure [kPa]
293.8 K, Crystal | 0.00391
296.7 K, Crystal | 0.0058
299.7 K, Crystal | 0.00793
302.7 K, Crystal | 0.0109
305.7 K, Crystal | 0.0154
308.3 K, Crystal | 0.0201
308.8 K, Crystal | 0.0217
311.2 K, Crystal | 0.0276
311.7 K, Crystal | 0.0293
314.2 K, Crystal | 0.0384
314.7 K, Crystal | 0.0405
317.6 K, Crystal | 0.0574
320.7 K, Crystal | 0.0769
323.2 K, Crystal | 0.0956
323.6 K, Crystal | 0.1
326.6 K, Crystal | 0.1313
329.6 K, Crystal | 0.1637
333.2 K, Crystal | 0.2253
333.7 K, Crystal | 0.2468
338.2 K, Crystal | 0.3739
338.6 K, Crystal | 0.3689
345.6 K, Liquid | 0.4066
346.7 K, Liquid | 0.4358
347.6 K, Liquid | 0.4703
348.6 K, Liquid | 0.4816
351.5 K, Liquid | 0.5565
351.7 K, Liquid | 0.5963
352.5 K, Liquid | 0.6078
354.5 K, Liquid | 0.6715
356.5 K, Liquid | 0.7609
357.5 K, Liquid | 0.799
360.7 K, Liquid | 0.9613
361.2 K, Liquid | 1
363.7 K, Liquid | 1.053
366.2 K, Liquid | 1.252
371.2 K, Liquid | 1.638

CC(C)OC(=O)CC(=O)OC(C)C [diisopropyl malonate]
Liquid
Conditions | vapor or sublimation pressure [kPa]
289.3 K | 0.00784
292.5 K | 0.0105
295.4 K | 0.0139
298.4 K | 0.0172
301.4 K | 0.0228
304.4 K | 0.0293
307.4 K | 0.0375
310.4 K | 0.0471
313.4 K | 0.0581
315.4 K | 0.0688
316.5 K | 0.0757
318.5 K | 0.0862
319.4 K | 0.0965
321.5 K | 0.1068
322.5 K | 0.1138
323.5 K | 0.1282
325.4 K | 0.1468

CC(C)(C)OC(=O)CC(=O)OC(C)(C)C [bis(1,1-dimethylethyl) propanedioate]
Liquid
Conditions | vapor or sublimation pressure [kPa]
293.7 K | 0.00787
295.7 K | 0.00952
298.6 K | 0.0122
301.7 K | 0.0159
303.6 K | 0.0186
306.6 K | 0.023
308.6 K | 0.0274
310.7 K | 0.0337
312.6 K | 0.0399
315.6 K | 0.0494
317.6 K | 0.055
319.6 K | 0.0663
321.6 K | 0.0714
323.6 K | 0.0845
324.7 K | 0.0934
327.6 K | 0.1125
333.5 K | 0.1828
336.5 K | 0.2131
339.5 K | 0.2702
342.5 K | 0.333
345.5 K | 0.3886

CC(C)(C)OC(=O)CCC(=O)OC(C)(C)C [di-tert-butyl succinate]
Liquid
Conditions | vapor or sublimation pressure
323.2 K | 0.0331 kPa
326.2 K | 0.0419 kPa
331.2 K | 0.0592 kPa
333.2 K | 0.0697 kPa
335.2 K | 0.0817 kPa
337.2 K | 0.0885 kPa
339.2 K | 0.1043 kPa
341.2 K | 0.1198 kPa
343.2 K | 0.1351 kPa
345.2 K | 0.1498 kPa and 0.1534 kPa
347.2 K | 0.1716 kPa
349.2 K | 0.2009 kPa
351.2 K | 0.2187 kPa
353.2 K | 0.2523 kPa
355.2 K | 0.2842 kPa

CC(C)OC(=O)CCC(=O)OC(C)C [bis(1-methylethyl) butanedioate]
Liquid
Conditions | vapor or sublimation pressure [kPa]
304.4 K | 0.0113
307.4 K | 0.0147
310.4 K | 0.0186
313.4 K | 0.0236
316.4 K | 0.0301
318.5 K | 0.0352
321.4 K | 0.0448
323.4 K | 0.0527
326.4 K | 0.0651
328.5 K | 0.0749
331.4 K | 0.096
333.3 K | 0.1092

CC(C)OC(=O)CCCC(=O)OC(C)C [bis(1-methylethyl) pentanedioate]
Liquid
Conditions | vapor or sublimation pressure [kPa]
294.5 K | 0.00137
297.5 K | 0.00175
300.5 K | 0.00246
303.4 K | 0.00328
306.4 K | 0.00433
309.5 K | 0.00594
312.5 K | 0.00714
315.5 K | 0.00958
318.6 K | 0.0126
322.7 K | 0.017
324.4 K | 0.0199
327.4 K | 0.0251

CC(C)(C)OC(=O)CCCC(=O)OC(C)(C)C [di-tert-butyl glutarate]
Liquid
Conditions | vapor or sublimation pressure [kPa]
295.2 K | 0.00104
297.2 K | 0.0013
299.2 K | 0.00157
301.2 K | 0.00187
303.2 K | 0.00231
305.2 K | 0.00276
307.2 K | 0.00334
309.2 K | 0.00393
311.2 K | 0.00471
313.2 K | 0.00581
315.2 K | 0.00674
317.2 K | 0.00801
319.2 K | 0.00909
321.2 K | 0.0104
323.2 K | 0.0123
325.2 K | 0.0152

CC(C)(C)OC(=O)CCCCC(=O)OC(C)(C)C [di-tert-butyl adipate]
Liquid
Conditions | vapor or sublimation pressure [kPa]
322.6 K | 0.00711
323.4 K | 0.00757
326.2 K | 0.00926
329 K | 0.0113
331.8 K | 0.01428
336 K | 0.01907
338 K | 0.02216
341 K | 0.02859
344 K | 0.03272
346.9 K | 0.04033
349.9 K | 0.0511
352.9 K | 0.06145
355.9 K | 0.07647
358.9 K | 0.09287
361.9 K | 0.1117
362.4 K | 0.1137
362.5 K | 0.1144
366.3 K | 0.1453

CC(C)OC(=O)C(=O)OC(C)C [diisopropyl oxalate]
Liquid
Conditions | vapor or sublimation pressure [kPa]
287.5 K | 0.0149
290.4 K | 0.0197
293.3 K | 0.0254
297.3 K | 0.035
300.3 K | 0.0452
303.3 K | 0.0576
306.3 K | 0.0712
308.3 K | 0.0846
311.2 K | 0.1081
313.3 K | 0.1266
316.3 K | 0.151
318.4 K | 0.1722
318.5 K | 0.1731
321.2 K | 0.2066
322.4 K | 0.2247
323.6 K | 0.2533
326.4 K | 0.2884
330.5 K | 0.3766
